According to ChEMBL document CHEMBL1649567, “Characterization of the plasmid-borne quinolone resistance gene qnrB19 in Salmonella enterica serovar Typhimurium” (2009):
Values after ≈ are worked out from the molar mass of the structure shown.

Experiments:
[1] = tested on: Salmonella typhimurium; test: Antimicrobial activity against Salmonella enterica serovar Typhimurium transconjugant p61/9T expressing qnrB19 gene variant carried by IncL/M-like plasmid by Etest; assay type: functional, Salmonella enterica subsp. enterica serovar Typhimurium
[2] = tested on: Salmonella typhimurium; test: Antimicrobial activity against Salmonella enterica serovar Typhimurium STYM61/9 expressing qnrB19 gene variant carried by IncL/M-like plasmid by Etest; assay type: functional, Salmonella enterica subsp. enterica serovar Typhimurium
[3] = tested on: Escherichia coli; test: Antimicrobial activity against Escherichia coli CSH26RifR receiving qnrB19 gene variant carried by IncL/M-like plasmid from Salmonella enterica serovar Typhimurium STYM61/9 by Etest; assay type: functional

SMILES	MIC [1] [µg/mL]	MIC [2] [µg/mL]	MIC [3] [µg/mL]
O=C(O)c1cn(C2CC2)c2cc(N3CCNCC3)c(F)cc2c1=O [CIPROFLOXACIN]	0.19 (≈ 0.573 µM)	0.38 (≈ 1.15 µM)	
CC1COc2c(N3CCN(C)CC3)c(F)cc3c(=O)c(C(=O)O)cn1c23 (centres undefined) [OFLOXACIN]	0.75 (≈ 2.08 µM)	0.75 (≈ 2.08 µM)	0.064 (≈ 0.177 µM)
CCn1cc(C(=O)O)c(=O)c2cc(F)c(N3CCNCC3)cc21 [NORFLOXACIN]	0.5 (≈ 1.57 µM)	1 (≈ 3.13 µM)	0.064 (≈ 0.2 µM)
CCn1cc(C(=O)O)c(=O)c2ccc(C)nc21 [NALIDIXIC ACID]	16 (≈ 68.9 µM)	12 (≈ 51.7 µM)	4 (≈ 17.2 µM)
COc1c(N2C[C@@H]3CCCN[C@@H]3C2)c(F)cc2c(=O)c(C(=O)O)cn(C3CC3)c12 [MOXIFLOXACIN]	0.5 (≈ 1.25 µM)	0.5 (≈ 1.25 µM)	0.047 (≈ 0.117 µM)
